Test results as given in US20240353394A1, “ASSAY METHODS FOR SCREENING INHIBITORS OF SICKLE CELL DISEASE, ß-THALASSEMIA, OR SICKLE CELL ß-THALASSEMIA, OR A PHENOTYPE THEREOF” (Alexion Pharmaceuticals, Inc., priority 2021, published 2024).

Tests used:
Assay type in all cases: cell-based, human
SS-RBCs [1] = test: Heme dose-dependent induction of iC3b deposition on SS-RBCs
Source text: (§1) RBCs and serum from SCD patients homozygous for the mutation in the hemoglobin gene (SS) were obtained from BioIVT (cat HUMANRBCALSUZN and HMRBC-SCA respectively) and from Sanguine Biosciences (Study #24348). Gelatin Veronal Buffer (GVB) was obtained from Boston Bioproducts (cat. IBB-300X). Mg-EGTA (cat. B106), C8 depleted normal human serum (cat. A325) and normal human serum (cat. NHS) were obtained from Complement Technology. PBS was obtained from Corning, cat. 21-031-CV. Porcine heme (Sigma, cat. 51280) was used at various concentrations (50-800 uM) to amplify complement activation and induce deposition on human cells.
(§2) All centrifugations were performed at 440×g for 5 min at 4° C. and supernatants aspirated with multi-channel pipets to avoid disturbing the loose RBC pellets.
Patient SS-RBCs were washed three times in PBS, resuspended in GVB, 5 mM Mg-EGTA and re-distributed to sterile V-bottom 96 well plates at a concentration of 2×10^6 cells/well. […] Heme was used at 0, 100, 200, 400, and 800 μM. Following incubation for 20-30 minutes at 37° C. 5% CO2, PBS containing 10% EDTA (Corning, cat. 46-030-CI) was added to stop complement activation. RBCs were washed and stained with antibody to iC3b as detailed below.
(§3) Cells were resuspended in 50 μL per well iC3b (Quidel, cat. A209) or C5b-9 antibody (Quidel, cat. A239) diluted to 4 μg/mL in PBS and incubated for 20-30 min at 4° C. (in some cases, staining for flow cytometry was performed in sheath fluid). Cells were washed twice with 150-200 μL PBS, resuspended in 50 μL goat anti-mouse IgG (H+L)-AF488 (Invitrogen cat. A11029) diluted to 4 μg/mL in PBS and incubated for 20-30 min at 4° C. In some experiments, goat anti-mouse IgG2b AF488 was used at 4 μg/mL (Invitrogen, cat. A21141). Cells were washed twice with 150-200 μL PBS and acquired on the LSR Fortessa for flow cytometric analysis.

HMEC-1 cells = test: Heme-induced complement (iC3b, C5b-9) deposition on HMEC-1 cells, flow cytometry; conditions: for Q2 % Parent iC3b+ / Q2 % Parent C5b-9+: HMEC-1, 20% normal human serum, 1 uM inhibitor, heme 400 μM, 20-30 min 37° C.; for Q2 % Parent iC3b+: Table 4, FIG. 4A; for Q2 % Parent C5b-9+: Table 4, FIG. 4B; for effect on heme-induced C3 deposition on endothelial cells / effect on heme-induced C5b-9 (MAC, TCC) deposition on endothelial cells: HMEC-1, heme and NHS; for effect on heme-induced C3 deposition on endothelial cells: FIG. 4A; for effect on heme-induced C5b-9 (MAC, TCC) deposition on endothelial cells: FIG. 4B
Experimental: The endothelial cell line HMEC-1 was purchased from ATCC (CRL 3243) and expanded and banked at AcCellerate (Cat. CBA02, lot 92-190318FG01). This is a dermal microvascular endothelial cell line. Cells were used in experiments at passage <5.
All centrifugation steps were performed for 5-7 min at 200-300 g at room temperature (RT). HMEC-1 cells were seeded into 6 well plates at 1.5×10^5 cells per well in medium (Endothelial cell growth medium MV2, Promocell, cat. 22022) and allowed to reach confluency (72 hrs). Normal human serum (Complement Technologies, cat. NHS) was spiked with 1 uM inhibitor, diluted to 20% using Live cell imaging solution (LCIS) (Invitrogen, cat A1429DJ) containing 5-10 mM MgEGTA and added to HMEC-1 cultures in place of the medium. Heme was added to 400 μM, mixed and incubated for 20-30 min at 37° C. Cells were rinsed twice with 2 mLs PBS (Corning, cat. 21-031-CV) and detached with PBS containing 10 mM EDTA (Corning, cat. 46-034-CI). Cells were centrifuged, pellets resuspended in 400 μL sheath fluid (BD Biosciences, cat. 342003) and transferred to V-bottom 96 well plates in duplicate. After centrifugation, pellets were resuspended in 50 μL per well sheath fluid containing either iC3b or C5b-9 antibody diluted to 4 μg/mL. Following several washes, the cells were incubated with 50 μL of goat anti mouse IgG (H+L) AF 488 diluted to 4 μg/mL in sheath fluid for 30 min at 4° C. Following several washes, cells were acquired on the LSR Fortessa for flow cytometry analysis.

monocytes in whole blood = test: Heme-induced tissue factor expression on monocytes in whole blood, flow cytometry; conditions: hirudin whole blood; for Q2 % Parent TF+: CD14 monocytes, inhibitor 1 μM, heme 100 μM, 4 hrs 37° C., Table 5
Experimental: Human whole blood was obtained internally from healthy donors according to Institutional Review Board protocol. Blood was drawn into custom hirudin blood draw tubes obtained from Haematologic Technologies (cat. SCAT-296-5/5, 500 ATU/mL). This anti-coagulant allows simultaneous activation of complement and coagulation (through but not beyond thrombin). Blood was aliquoted into facs tubes (0.2 mL per tube) and inhibitors added to 1 μM. Heme was added to 100 μM and the samples were incubated for 4 hrs at 37° C., 5% CO2, mixing approximately every 30 minutes. To stain for flow cytometry, 10 μL of TruStain FcX (Biolegend, cat. 422302) was added for a 5-10 minute incubation at RT (to block IgG receptors). Mouse anti-human CD14 PerCP Cy5.5 (BD Biosciences, cat. 550787) (5 μL per sample) and mouse anti-human tissue factor-PE (BD Biosciences, cat. 550312) were added (20 μL per sample) and the samples were mixed and incubated for 30 minutes at RT. To lyse RBCs, 3 mLs of 1× lysis buffer (BD Biosciences Cat. 555899) was added to each tube followed by vortexing and incubation for 20 min at RT. The samples were centrifuges at 340 g for 5 minutes and washed twice with PBS. Cell pellets were resuspended in 0.5 mL PBS and acquired on the LSR Fortessa for flow cytometric analysis. Monocytes were gated via CD14 triggering and data was expressed as percentage of CD14 monocytes positive for tissue factor (TF).

SS-RBCs [2] = test: Heme-induced complement (iC3b, C5b-9) deposition on SS-RBCs, flow cytometry; conditions: for Q2 % Parent iC3b+ / Q2 % Parent C5b-9+: 20% autologous serum, heme 400 μM, 20-30 min 37° C.; for Q2 % Parent iC3b+: Table 3, FIG. 2A; for Q2 % Parent C5b-9+: Table 3, FIG. 2B; for effect on heme-induced C3 deposition (opsonization) on SS-RBCs / effect on heme-induced C5b-9 (MAC) deposition on SS-RBCs: heme and autologous serum; for effect on heme-induced C3 deposition (opsonization) on SS-RBCs: FIG. 2A; for effect on heme-induced C5b-9 (MAC) deposition on SS-RBCs: FIG. 2B
Source text: as §1, §2
Patient SS-RBCs were washed two or three times in PBS. To induce complement deposition, RBCs were resuspended in GVB, 5 mM Mg-EGTA (assay buffer) at 5×10^7 cells/mL and 30 μL added to sterile V-96 wells. Autologous serum was added to 20% final concentration. Complement inhibitors were diluted in assay buffer at 5× working stock of 3.125 μM and 10 μL added to wells containing cells. Porcine heme was added to 400 μM and the cells incubated for 20-30 minutes at 37° C., 5% CO2. Complement activation was stopped by the addition of 150 μL/well PBS containing 10 mM EDTA. Cells were centrifuged and washed once with 200 μL PBS and stained for iC3b and C5b-9 deposition below.
Flow cytometric Analysis of iC3b and C5b-9 Deposition on the Surface of SS-RBCs
as §3

whole blood = test: IL-8 production in whole blood model of thromboinflammation; conditions: heme, FIG. 6

With C=CC1=C(C)c2cc3[n-]c(cc4[n-]c(cc5nc(cc1n2)C(C)=C5C=C)c(C)c4CCC(=O)O)c(CCC(=O)O)c3C.[Fe+2] [heme] the “Q2 % Parent iC3b+” value (SS-RBCs [1]; 100 uM heme, 20% SS-Serum) was 18.3%, the “Q2 % Parent iC3b+” value (SS-RBCs [1]; 100 uM heme, No Serum) was 2% and the “Q2 % Parent iC3b+” value (SS-RBCs [1]; 200 uM Heme, 20% SS-Serum) was 22.8%. For the same molecule, the “Q2 % Parent iC3b+” value (SS-RBCs [1]; 200 uM Heme, No Serum) was 1.3%, the “Q2 % Parent iC3b+” value (SS-RBCs [1]; 400 uM heme, 20% SS-Serum) was 49.6% and the “Q2 % Parent iC3b+” value (SS-RBCs [1]; 400 uM heme, No Serum) was 1.1%. The “Q2 % Parent iC3b+” value (SS-RBCs [1]; 800 uM heme, 20% SS-Serum) was 69.7%, the “Q2 % Parent iC3b+” value (SS-RBCs [1]; 800 uM heme, No Serum) was 0.8% and the “induction of C3 deposition (opsonization) on SS-RBCs” value (SS-RBCs [1]; heme 100-800 μM, 20% autologous serum, FIG. 3) was “potent and dose dependent opsonization”.

CC(=O)c1nn(CC(=O)N2[C@H](C(=O)Nc3nc(Br)ccc3C)C[C@@]3(C)C[C@@H]23)c2ccc(-c3cnc(C)nc3)cc12 [ALXN2050, vermincopan] was tested, and the “Q2 % Parent iC3b+” value (HMEC-1 cells) was 3.4%, the “Q2 % Parent C5b-9+” value (HMEC-1 cells) was 3% and the “effect on heme-induced C3 deposition on endothelial cells” value (HMEC-1 cells) was “block”. For the same molecule, the “effect on heme-induced C5b-9 (MAC, TCC) deposition on endothelial cells” value (HMEC-1 cells) was “block”, the “Q2 % Parent TF+” value (monocytes in whole blood) was 1.4% and the “Q2 % Parent iC3b+” value (SS-RBCs [2]) was 3.5%. The “Q2 % Parent C5b-9+” value (SS-RBCs [2]) was 3.4%.

B1: Crizanlizumab: antibody manufactured using the published sequence of Crizanlizumab, an anti-P-selectin antibody FDA approved for prevention of VOC in SCD (antibody, chains of the INN, looked up, V domains shown)
VH: QVQLVQSGAEVKKPGASVKVSCKVSGYTFTSYDINWVRQAPGKGLEWMGWIYPGDGSIKYNEKFKGRVTMTVDKSTDTAYMELSSLRSEDTAVYYCARRGEYGNYEGAMDYWGQGTLVTVSS
VL: DIQMTQSPSSLSASVGDRVTITCKASQSVDYDGHSYMNWYQQKPGKAPKLLIYAASNLESGVPSRFSGSGSGTDFTLTISSLQPEDFATYYCQQSDENPLTFGGGTKVEIK
With B1 the “Q2 % Parent iC3b+” value (HMEC-1 cells) was 82.9%, the “Q2 % Parent C5b-9+” value (HMEC-1 cells) was 53.7% and the “effect on heme-induced C3 deposition on endothelial cells” value (HMEC-1 cells) was “no effect”. For the same molecule, the “effect on heme-induced C5b-9 (MAC, TCC) deposition on endothelial cells” value (HMEC-1 cells) was “no effect”, the “effect on IL-8 production” value (whole blood) was “no effect” and the “Q2 % Parent TF+” value (monocytes in whole blood) was 23.2%. For the same molecule, the “effect on heme-induced TF upregulation by monocytes” value (monocytes in whole blood; heme, FIG. 5A, FIG. 5B) was “no effect”, the “Q2 % Parent iC3b+” value (SS-RBCs [2]) was 38.6% and the “Q2 % Parent C5b-9+” value (SS-RBCs [2]) was 7.3%. For the same molecule, the “effect on heme-induced C3 deposition (opsonization) on SS-RBCs” value (SS-RBCs [2]) was “little to no effect”, the “effect on heme-induced C3 deposition (opsonization) on SS-RBCs” value (SS-RBCs [2]; listed as anti-P-selectin antibody) was “no effect” and the “effect on heme-induced C5b-9 (MAC) deposition on SS-RBCs” value (SS-RBCs [2]) was “little to no effect”. For the same molecule, the “effect on heme-induced C5b-9 (MAC) deposition on SS-RBCs” value (SS-RBCs [2]; listed as anti-P selectin antibody) was “no effect”.
